Assay results: patent US12428422B2, “Purine derivatives as SIK-3 inhibitors” (RHIZEN PHARMACEUTICALS AG, priority 2020, dated 2025)

Tests used:
U937 cell lines = test: MTT cell growth inhibition, single agent or combination, U937; format: cell-based; settings: combined with azacytidine or ventoclax, 72 hrs
Description: (§1) Assay 4: Compound M1 as a Single Agent or in Combination with Azacytidine, or Venetoclax was Determined in the AML Lines: THP-1, U937, and MV-4-11.
(§2) Day 0 • The cells were pelleted and counted. • Cells were plated at desired density (100 μl/well) in complete media in a 96-well plate in triplicates. A column for Day “0” reading was also seeded (18-20 hrs after initial plating and before addition of the inhibitors) • Plates were incubated at 37° C. and 5% CO2. Day 1 • 10 μl of MTT (5 mg/ml) were added to the column designated for Day “0”. It was mixed well and incubated at 37° C. and 5% CO2 for 3.5 h. Cells were pelleted down at 4000 rpm for 10 minutes. • Media was aspirated out and 150 μl of DMSO were added to the cells and mixed by pipetting to dissolve the crystals • Plate was read at A560 nm and A640 nm. […] Crystals were dissolved by repeated pipetting. • The plate was read at A560 nm and A640 nm. […]
(§3) Reference absorbance values were subtracted from test absorbance values. Day 0 values were subtracted from final day absorbance values for determining cell growth. Percent cell growth inhibitions were calculated.

MDA-MB-231 cell lines = test: MTT cell growth inhibition, combination with taxol, MDA-MB-231; format: cell-based; settings: combined with taxol, 72 hrs
Description: (§4) Assay 6: Combination of Compound M1 with Standard Agents in Different Cell Lines
(§5) Day 0 • The cells were pelleted and counted. • Cells were plated at desired density (100 μl/well) in complete media in a 96-well plate in triplicates. A column for Day “0” reading was also seeded. (18-20 hrs after initial plating and before addition of the inhibitors) • Plates were incubated at 37° C. and 5% CO2. Day 1 • 10 μl of MTT (5 mg/ml) were added to the column designated for Day “0”. It was mixed well and incubated at 37° C. and 5% CO2 for 3.5 h. Cells were pelleted down at 4000 rpm for 10 minutes. • Media was aspirated out and 150 μl of DMSO were added to the cells and mixed by pipetting to dissolve the crystals • The plate was read at A560 nm and A640 nm. Day 2 • A series of dilutions of the inhibitors were initially made in 100% DMSO and further diluted in growth medium. • Cells were treated with either single agent of DMSO, compound M1, taxol, and a combination of compound M1 and taxol (MDA-MB-231, MCF-7, ZR.75.1 and SK-OV-3). […] Crystals were dissolved by repeated pipetting. • The plate was read at A560 nm and A640 nm. […]
(§6) Reference absorbance values were subtracted from test absorbance values. Day 0 values were subtracted from final day absorbance values for determining cell growth. % Cell growth inhibitions were calculated.

SK-OV-3 cell lines = test: MTT cell growth inhibition, combination with taxol, SK-OV-3; format: cell-based; settings: combined with taxol, 72 hrs
Description: as §4, §5, §6

MV-4-11 cell lines = test: MTT cell growth inhibition, single agent or combination, MV-4-11; format: cell-based; settings: combined with azacytidine or ventoclax, 72 hrs
Description: as §1, §2, §3

HuT-78 cell lines = test: MTT cell growth inhibition, combination with romidepsin, HuT-78; format: cell-based; settings: combined with romedepsin, 72 hrs
Description: Assay 5: Combination of Compound M1 with Standard Agents in HuT-78 Cell Lines
Day 0 • The HuT-78 cells were pelleted and counted. • Cells were plated at desired density (100 μl/well) in complete media in a 96-well plate in triplicates. A column for Day “0” reading was also seeded. (18-20 hrs after initial plating and before addition of the inhibitors) • Plates were incubated at 37° C. and 5% CO2. Day 1 • 10 μl of MTT (5 mg/ml) were added to the column designated for Day “0”. It was mixed well and incubated at 37° C. and 5% CO2 for 3.5 hours. Cells were pelleted down at 4000 rpm for 10 minutes. • Media was aspirated out and 150 μl of DMSO were added to the cells and mixed by pipetting to dissolve the crystals • The plate was read at A560 nm and A640 nm. Day 2 • A series of dilutions of the inhibitors were initially made in 100% DMSO and further diluted in growth medium. • Cells were treated with either single agent of DMSO, compound M1, romidepsin, or a combination of compound M1 and romidepsin (HuT-78). […] Crystals were dissolved by repeated pipetting. • The plate was read at A560 nm and A640 nm. […]
as §6

SIK3 (human) = SIK3 (human) (Homo sapiens, UniProt Q9Y2K2); test: Enzymatic radiometric assay against human salt-inducible kinase-3 (SIK3); format: biochemical
Chain of SIK3 (human) (Q9Y2K2 whole entry): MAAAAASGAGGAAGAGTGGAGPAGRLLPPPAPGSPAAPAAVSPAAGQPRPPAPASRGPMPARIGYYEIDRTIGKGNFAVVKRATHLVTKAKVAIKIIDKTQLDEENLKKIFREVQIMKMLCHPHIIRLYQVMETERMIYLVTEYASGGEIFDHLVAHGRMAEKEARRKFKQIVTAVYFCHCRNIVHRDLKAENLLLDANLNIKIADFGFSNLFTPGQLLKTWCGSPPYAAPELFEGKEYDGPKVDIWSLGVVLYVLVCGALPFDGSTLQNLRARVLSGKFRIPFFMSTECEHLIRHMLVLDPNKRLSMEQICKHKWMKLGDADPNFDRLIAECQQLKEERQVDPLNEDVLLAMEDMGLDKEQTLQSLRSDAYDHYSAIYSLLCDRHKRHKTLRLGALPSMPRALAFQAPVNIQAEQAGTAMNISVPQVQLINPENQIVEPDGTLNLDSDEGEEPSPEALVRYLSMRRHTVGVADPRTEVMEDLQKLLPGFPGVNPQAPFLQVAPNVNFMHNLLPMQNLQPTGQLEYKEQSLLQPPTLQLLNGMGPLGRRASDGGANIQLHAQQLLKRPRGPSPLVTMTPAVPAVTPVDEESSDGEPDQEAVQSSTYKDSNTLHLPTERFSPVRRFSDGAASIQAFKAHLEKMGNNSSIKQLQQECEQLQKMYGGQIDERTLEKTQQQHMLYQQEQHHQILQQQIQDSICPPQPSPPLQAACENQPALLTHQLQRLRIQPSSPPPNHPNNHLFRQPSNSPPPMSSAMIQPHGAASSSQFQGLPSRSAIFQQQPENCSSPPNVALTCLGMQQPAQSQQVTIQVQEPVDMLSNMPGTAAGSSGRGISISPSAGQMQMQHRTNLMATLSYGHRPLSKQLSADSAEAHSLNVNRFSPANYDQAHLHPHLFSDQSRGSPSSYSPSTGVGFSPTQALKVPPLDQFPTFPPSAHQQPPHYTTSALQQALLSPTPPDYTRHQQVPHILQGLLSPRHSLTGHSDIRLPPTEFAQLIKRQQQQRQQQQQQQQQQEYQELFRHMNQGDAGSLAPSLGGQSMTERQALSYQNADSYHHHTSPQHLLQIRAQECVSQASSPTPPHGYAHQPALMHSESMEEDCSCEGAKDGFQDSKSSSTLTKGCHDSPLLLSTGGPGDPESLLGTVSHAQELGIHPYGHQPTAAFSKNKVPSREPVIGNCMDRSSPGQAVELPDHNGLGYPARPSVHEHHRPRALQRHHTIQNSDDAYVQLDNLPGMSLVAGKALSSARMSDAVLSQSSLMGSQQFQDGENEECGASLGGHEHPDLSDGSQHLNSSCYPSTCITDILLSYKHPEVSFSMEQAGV
Description: Assay 1: Determination of IC50 of Compound M1 Against Human Salt-Inducible Kinase-3 (SIK3) Using an Enzymatic Radiometric Assay
• SIK3 (human) was incubated with 8 mM MOPS pH 7.0, 0.2 mM EDTA, 100 uM of the peptide […] (Substrate), 10 mM Mg Acetate and [gamma-33P-ATP] (specific activity and concentration as required) in the presence of Compound M1. • The reaction was initiated by the addition of the Mg/ATP mix. • After incubation for 40 minutes at room temperature, the reaction was stopped by the addition of phosphoric acid to a concentration of 0.5%. • 10 μL of the reaction mixture was then spotted onto a P30 filtermat and washed four times for 4 minutes in 0.425% phosphoric acid and once in methanol prior to drying and scintillation counting. • The IC50 value was calculated using GraphPad Prism.

THP-1 cell lines = test: MTT cell growth inhibition, single agent or combination, THP-1; format: cell-based; settings: combined with azacytidine or ventoclax, 72 hrs
Description: as §1, §2, §3

ZR.75.1 cell lines = test: MTT cell growth inhibition, combination with taxol, ZR.75.1; format: cell-based; settings: combined with taxol, 72 hrs
Description: as §4, §5, §6

- activity against salt-inducible kinase 3 (SIK3) (SIK3 (human)): exhibit activity
- SIK-3 inhibitory potency compared among compounds M, M1 and M2 (SIK3 (human); of the three compounds M, M1 and M2): most potent SIK-3 inhibitor
SMILES: CC[C@H](Nc1ncnc2[nH]c(O)nc12)c1oc2ccccc2c(=O)c1-c1cccc(F)c1 [Compound M1, (S)-3-(3-fluorophenyl)-2-(1-((8-hydroxy-9H-purin-6-yl)amino)propyl)-4H-chromen-4-one]
- cell growth inhibition in combination (U937 cell lines): synergistic activity
- cell growth inhibition in combination (MDA-MB-231 cell lines): synergistic results
- cell growth inhibition in combination (SK-OV-3 cell lines): synergistic results
- cell growth inhibition in combination (MV-4-11 cell lines): synergistic activity
- cell growth inhibition in combination (HuT-78 cell lines): synergistic results
- cell growth inhibition in combination (THP-1 cell lines): synergistic activity
- cell growth inhibition in combination (ZR.75.1 cell lines): synergistic results
